Patent publication US6849652B1, “1,2,4-triazole derivative, method for preparing the same, and pharmaceutical composition containing the same” (CJ Corp., priority 2002, dated 2005)

How the values were obtained:
COX-1 = target: T1, COX-1 (Homo sapiens, UniProt P23219); experiment: Assay for the COX-1 inhibitory activity using U-937 (PGE2 inhibition); type: cell-based; conditions: U-937 human lymphoma cells, test compound 1 μM, PGE2 vs DMSO control; read-out: Cyclooxygenase (COX) Inhibition (%) COX-1 (1 μM)
T1 construct: host or cells: U-937 human lymphoma cells
T1 sequence (P23219 24-599): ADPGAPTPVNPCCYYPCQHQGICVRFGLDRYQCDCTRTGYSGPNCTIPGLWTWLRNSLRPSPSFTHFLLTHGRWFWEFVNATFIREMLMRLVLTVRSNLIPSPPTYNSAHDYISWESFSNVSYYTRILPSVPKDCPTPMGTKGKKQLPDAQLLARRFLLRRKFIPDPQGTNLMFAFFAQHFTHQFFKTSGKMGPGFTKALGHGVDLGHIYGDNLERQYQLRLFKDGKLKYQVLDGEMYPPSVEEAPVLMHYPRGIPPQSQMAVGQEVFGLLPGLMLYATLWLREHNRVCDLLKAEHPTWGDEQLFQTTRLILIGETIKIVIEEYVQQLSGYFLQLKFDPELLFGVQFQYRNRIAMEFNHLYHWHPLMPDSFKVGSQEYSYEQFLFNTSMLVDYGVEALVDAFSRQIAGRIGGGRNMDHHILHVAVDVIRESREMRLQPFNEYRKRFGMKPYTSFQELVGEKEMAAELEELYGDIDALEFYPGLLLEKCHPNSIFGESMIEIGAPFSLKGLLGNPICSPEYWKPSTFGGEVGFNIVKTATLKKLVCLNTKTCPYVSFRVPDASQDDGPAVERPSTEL
Description: The collected cells were diluted with HBSS (×1, Hank's balanced salt solution) to a concentration of 1×10^6 cells/ml. 1 ml of the dilute cell solution was placed into each well of 12-well plates. 5 μl of 1 μM solution of a test compound in DMSO and 5 μl of DMSO as a control were added to the wells. The wells were incubated in CO2 incubator at 37° C. for 15 minutes. Separately, 10 mM stock solution of arachidonic acid in ethanol was diluted ten times in ethanol to prepare 1 mM solution of arachidonic acid. Arachidonic acid acts as a substrate. 10 μl of the 1 mM solution of arachidonic acid was added to each well and incubated at CO2 incubator at 37° C. for 30 minutes. The cell solution of each well was placed in a centrifuge test tube and centrifuged at 10,000 rpm at 4° C. for 5 minutes. The concentration of PGE2 in the collected cells and the supernatant was quantified by means of a monoclonal kit (Cayman Chemicals). The percentages of PGE2 inhibition in a group of the test compound-treated cells in relation to a group of the DMSO-treated cells were calculated. Based on the calculated values, the COX-1 inhibitory activities were evaluated.
(§1) The percentages of the COX inhibition were calculated according to the following equation:
(§2) % Inhibition=(concentration of PGE2 in test compound-untreated sample —concentration of PGE2 in test compound-treated sample)/(concentration of PGE2 in test compound-untreated sample)×100

COX-2 = target: T2, COX-2 (Mus musculus, UniProt Q05769); experiment: Assay for the COX-2 inhibitory activity using RAW 264.7 cell line (PGE2 inhibition); type: cell-based; conditions: RAW264.7, RAW 264.7 cells, test compound 10 nM, interferon/LPS 18 hours, read-out: Cyclooxygenase (COX) Inhibition (%) COX-2 (10 nM)
T2 construct: host or cells: RAW 264.7 cells, aspirin-pretreated, then induced with interferon and LPS
T2 sequence (Q05769 18-604): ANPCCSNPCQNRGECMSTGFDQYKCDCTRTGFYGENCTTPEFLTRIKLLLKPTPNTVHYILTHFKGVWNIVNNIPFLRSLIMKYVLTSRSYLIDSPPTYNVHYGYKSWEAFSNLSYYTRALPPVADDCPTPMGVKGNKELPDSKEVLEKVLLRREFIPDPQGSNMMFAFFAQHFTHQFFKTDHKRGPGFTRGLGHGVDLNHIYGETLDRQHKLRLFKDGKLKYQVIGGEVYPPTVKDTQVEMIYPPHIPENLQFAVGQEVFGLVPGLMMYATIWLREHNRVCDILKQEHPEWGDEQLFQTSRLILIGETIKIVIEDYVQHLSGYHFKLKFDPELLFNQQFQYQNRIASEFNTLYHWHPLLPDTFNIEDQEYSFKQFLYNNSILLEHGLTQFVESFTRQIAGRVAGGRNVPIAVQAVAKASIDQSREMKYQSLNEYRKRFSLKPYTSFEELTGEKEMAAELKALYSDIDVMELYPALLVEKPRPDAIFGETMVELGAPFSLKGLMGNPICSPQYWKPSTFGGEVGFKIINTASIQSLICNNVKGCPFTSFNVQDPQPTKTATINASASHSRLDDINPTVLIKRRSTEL
Description: Each well was treated with 250 μM of aspirin and incubated at 37° C. for 2 hours. After the culture media were replaced with new culture media, the new culture media were treated with a test compound (10 nM) and incubated for 30 minutes. Then, each well was treated with interferon (100 units/ml) and lipopolysaccharide (LPS, 100 ng/ml) and incubated for 18 hours. The culture media were transferred to other test tubes. The concentration of PGE2 was quantified by means of the EIA kit (Cayman Chemicals).
as §1, §2

Compound	inhibition at 1 µM (COX-1)	inhibition at 0.01 µM (COX-2)
CS(=O)(=O)c1ccc(-n2nc(C(F)(F)F)nc2-c2ccc(Br)cc2)cc1F [Example 25, 1-(3-fluoro-4-methanesulfonylphenyl)-5-(4-bromophenyl)-3-trifluoromethyl-1H-1,2,4-triazole]	19.5%	13.7%
COc1ccc(-c2nc(C(F)(F)F)nn2-c2ccc(S(C)(=O)=O)c(F)c2)cc1 [Example 23, 1-(3-fluoro-4-methanesulfonylphenyl)-5-(4-methoxyphenyl)-3-trifluoromethyl-1H-1,2,4-triazole]	15.5%	41.2%
Cc1ccc(-c2nc(C(F)(F)F)nn2-c2ccc(S(C)(=O)=O)c(F)c2)cc1 [Example 27, 1-(3-fluoro-4-methanesulfonylphenyl)-5-(4-methylphenyl)-3-trifluoromethyl-1H-1,2,4-triazole]	26.4%	19%
CCOc1ccc(-c2nc(C(F)(F)F)nn2-c2ccc(S(C)(=O)=O)c(F)c2)cc1 [Example 28, 1-(3-fluoro-4-methanesulfonylphenyl)-5-(4-ethoxyphenyl)-3-trifluoromethyl-1H-1,2,4-triazole]	25.7%	15.6%
CS(=O)(=O)c1ccc(-n2nc(C(F)(F)F)nc2-c2ccc(F)cc2)cc1F [Example 24, 1-(3-fluoro-4-methanesulfonylphenyl)-5-(4-fluorophenyl)-3-trifluoro methyl-1H-1,2,4-triazole]	18.8%	18.5%
CS(=O)(=O)c1ccc(-n2nc(C(F)(F)F)nc2-c2ccccc2)cc1F [Example 22, 1-(3-fluoro-4-methanesulfonylphenyl)-5-phenyl-3-trifluoromethyl-1H-1,2,4-triazole]	32.8%	13.7%
CS(=O)(=O)c1ccc(-n2nc(C(F)(F)F)nc2-c2ccc(Cl)cc2)cc1F [Example 26]	27.4%	22.3%

The remaining lines, values ahead:

inhibition at 1 µM (COX-1)	inhibition at 0.01 µM (COX-2)	Compound
11.1%	16.4%	CS(=O)(=O)c1ccc(-n2nc(C(F)(F)F)nc2-c2cccc(Cl)c2)cc1F [Example 29, 1-(3-fluoro-4-methanesulfonylphenyl)-5-(3-chlorophenyl)-3-trifluoro methyl-1H-1,2,4-triazole]
44.5%	13.5%	CS(=O)(=O)c1ccc(-n2nc(C(F)(F)F)nc2-c2ccc3ccccc3c2)cc1F [Example 33, 1-(3-fluoro-4-methanesulfonylphenyl)-5-(naphthalene-2-yl)-3-trifluoromethyl-1H-1,2,4-triazole]
21.2%	15.5%	CS(=O)(=O)c1ccc(-n2nc(C(F)(F)F)nc2-c2ccc(F)c(F)c2)cc1F [Example 35, 1-(3-fluoro-4-methanesulfonylphenyl)-5-(3,4-difluorophenyl)-3-trifluoromethyl-1H-1,2,4-triazole]
23.2%	27.8%	Cc1cccc(-c2nc(C(F)(F)F)nn2-c2ccc(S(C)(=O)=O)c(F)c2)c1 [Example 32, 1-(3-fluoro-4-methanesulfonylphenyl)-5-(3-methylphenyl)-3-trifluoromethyl-1H-1,2,4-triazole]
11.2%	41.5%	CS(=O)(=O)c1ccc(-n2nc(C(F)(F)F)nc2-c2ccc3c(c2)OCO3)cc1F [Example 34, 5-([1,3]benzodioxole-5-yl)-1-(3-fluoro-4-methanesulfonylphenyl)-3-trifluoromethyl-1H-1,2,4-triazole]
26.4%	16.2%	COc1ccc(-c2nc(C(F)(F)F)nn2-c2ccc(S(C)(=O)=O)c(F)c2)cc1F [Example 31, 1-(3-fluoro-4-methanesulfonylphenyl)-5-(3-fluoro-4-methoxyphenyl)-3-trifluoromethyl-1H-1,2,4-triazole]
23.2%	15.1%	CS(=O)(=O)c1ccc(-n2nc(C(F)(F)F)nc2-c2cccc(F)c2)cc1F [Example 30, 1-(3-fluoro-4-methanesulfonylphenyl)-5-(3-fluorophenyl)-3-trifluoro methyl-1H-1,2,4-triazole]
